Experimental data taken from patent US20200108089A1, “Gemcitabine Derivatives for Cancer Therapy” (Suzhou Sirnaomics Biopharmaceuticals Co., Ltd., priority 2017, published 2020).
Like-named read-outs stand apart in the source and are kept apart here. Bridge positions count the residues as written; N and C are the ends. Ends that are not written are not given here. I, II: the chains in the order shown.

Assays:
[1] = tested on: Panc-1 cells; assay: Effect of forward transfection with mTOR siRNA on chemosensitivity of Panc-1 cells to GEM-TCA; format: cell-based, human; settings: mTOR-siRNA 10 nM and 20 nM; GEM-TCA 12.3 nM to 1 μM; 72 h; vs non-targeting siRNA
Method: FIG. 9. Effect of forward transfection with mTORsiRNA on chemosensitivity of Panc-1 cells to […] 5×10^3 Panc-1 cells were seeded on the wells of 96-well plate in 100 ul of DMEM/10% FBS. The next day cells were transfected with siRNA/Lipofectamine 2000 complexes accordingly to the manufactures' recommendations. In 5-6 h. medium was changed. The next day various concentrations of […] were applied to the transfected cells. At 72 h post chemical exposure cytotoxicity was assessed with Cell Titer-Glo Luminescent cell viability assay (Promega). Values derived from untreated cells (Blank) were set as 100%. All values represent the mean of ±S.D. of four replicates for each dilution. * different from cells transfected with control, not-targeting siRNA (p<0.05, Student's t test)
To realize the original hypothesis that the oncogenic gene target knockdown may induce a chemosensitivity of Panc-1 cell toward to […], the experiment was conducted with following procedures. 5×10^3 Panc-1 cells were seeded on the wells of 96-well plate in 100 ul of DMEM/10% FBS. The next day cells were transfected with siRNA/Lipofectamine 2000 complexes accordingly to the manufactures' recommendations. In 5-6 h. medium was changed. […] At 72 h post chemical exposure cytotoxicity was assessed with Cell Titer-Glo Luminescent cell viability assay (Promega). […]

[2] = tested on: mTOR; assay: Selection of potent siRNA targeting mTOR, transfection and qRT-PCR, CT26; format: cell-based; settings: mouse CT26 cells, qRT-PCR
From the text: (§1) FIG. 3. Selection of potent siRNA targeting mTOR. (A) The lower panel illustrates selection of eight 25 mer siRNA duplexes with control siRNA were transfected into human MDA-MB-231 cells and mouse CT26 cells. 24 hr later, mRNA was collected and subject to Q-RT-PCR with the standard control gene target Rigs15.
(§2) For mTOR siRNA selection, we first use in silico screening selected 8 siRNA sequences for siRNA oligo synthesis. And then we transfected these siRNAs into human MDA-MB-231 cells and mouse CT26 cells. Twenty-four hours later, the total mRNA collected and subjected to qRT-PCR analysis with the standard control gene target Rigs15. From FIG. 3 we can see that the potent siRNA duplexes targeting mTOR (both human and mouse mRNAs) was selected.
(§3) We have identified potent mTOR specific siRNA through cell culture studies with human breast cancer cell line MDA-MB-231 and mouse CT26 cells, followed by qRT-PCR analyses: mTOR-siRNA: […]

[3] = tested on: Panc-1 cells; assay: Effect of TGF-β1siRNA and mTORsiRNA on chemosensitivity of Panc-1 cells to low dose GEM-TCA; format: cell-based, human; settings: 48 h; for maximum cell killing: siRNA 30 nM plus GEM-TCA up to 1 μM; for sensitization of Panc-1 cells to GEM-TCA: siRNA 30 nM
Method: FIG. 10. Effect of forward transfection with TGF-β1siRNA and mTORsiRNA chemosensitivity of Panc-1 cells to […] The next day, the medium was supplemented with 3.9 nM-1000 nM […] diluted in the same medium. At 48 h post chemical exposure cytotoxicity was assessed with Cell Titer-Glo Luminescent cell viability assay (Promega). Values derived from untreated cells (Blank) were set as 100%. All values represent the mean of ±S.D. of four replicates for each dilution. Paired sample two-tailed Student's t-test was used to determine significance.
. At 48 h post chemical exposure cytotoxicity was assessed with Cell Titer-Glo Luminescent cell viability assay (Promega). Values derived from untreated cells (Blank) were set as 100%. All values represent the mean of ±S.D. of four replicates for each dilution. Paired sample two-tailed Student's t-test was used to determine significance. The TGF-β1siRNA was previously identified and validated with multiple in vitro and in vivo assays: […]

[4] = tested on: mTOR; assay: Selection of potent siRNA targeting mTOR, transfection and qRT-PCR, MDA-MB-231; format: cell-based; settings: human MDA-MB-231 cells, qRT-PCR
From the text: as §1, §2, §3

[5] = tested on: miR-132; assay: Knockdown of miR-132 by antagomir-132 nanoparticles in mouse eyes; format: in vivo; settings: QPCR
Method: FIG. 4. Knockdown of miR-132 by antagomir-132 nanoparticles in mouse eyes. […] One way ANOVA with Bonferroni's post hoc test was used to calculate the level of significance. P≤0.05 (*). Six corneas were collected and pooled for analysis by QPCR or WB. (B) Antagomir-132 and scrambled sequences were injected in HSV infected mice subconjunctively and the quantification of RasGAP mRNA from corneas isolated from different groups was carried out (n=6 mice/group). The level of significance was determined by student's t test (unpaired). ***P≤0.001.
One way ANOVA with Bonferroni's post hoc test was used to calculate the level of significance. P≤0.05 (*). Six corneas were collected and pooled for analysis by QPCR or WB. (B) Antagomir-132 and scrambled sequences were injected in HSV infected mice subconjunctively and the quantification of RasGAP mRNA from corneas isolated from different groups was carried out (n=6 mice/group). The level of significance was determined by student's t test (unpaired). ***P≤0.001 (FIG. 4).

[6] = tested on: Panc-1 cells; assay: Dosage-dependent cytotoxicities of Gemcitabine and GEM-HKP conjugate, Cell Titer-Glo; format: cell-based, human; settings: Panc-1, 72 hrs post treatment
Method: FIG. 21. Dosage-Dependent Cytotoxicities of Gemcitabine and GEM-HKP conjugate in the Panc-1 cell culture, at 72 hrs post treatments After exposures of the Panc-1 cells to Gemcitabine only, GEM-HKP conjugate, the cytotoxicities of each treatment was assessed with a “Cell Titer-Glo Luminescent cell viability assay” (Promega). Values derived from untreated cells (Blank) were set as 100%. All values represent the mean of ±S.D. of four replicates for each dilution. In this study, the HKP concentration at each point equals to its concentration in the Gem/HKP.

[7] = -NH2 of Gemcitabine; cited from earlier work
[8] = tested on: Lewis lung murine xenograft; settings: cited from earlier work
[9] = tested on: LX-1, CALU-6, NCI-H460, NCI-H520 human lung xenografts; settings: cited from earlier work
[10] = cited from earlier work

## mTOR-siRNA: 25mer siRNA duplex specific to mTOR mRNA; sense 5′-r(GGUCUGGUGCCUGGUCUGAUGAUGU)-3′ in b114 (sense CACUACAAAGAACUGGAGUUCCAGA; antisense UCUGGAACUCCAGUUCUUUGUAGUG; further chemistry not given here)
[1]
  tumor cell killing by GEM-TCA after siRNA transfection: significantly improved
[2]
  mTOR silencing potency: potent
[3]
  maximum cell killing: 60%
[3]; GEM-TCA 3.9 nM
  sensitization of Panc-1 cells to GEM-TCA: significantly sensitize
[3]; GEM-TCA 15.6 nM
  sensitization of Panc-1 cells to GEM-TCA: sensitization effect was disappeared
[4]
  mTOR silencing potency: potent

## TGF-β1siRNA: siRNA duplex to TGF-β1; sense 5′-r(CCUCAAUUCAGUCUCUCAUCUGCAA)-3′ in b118 (sense CCCAAGGGCUACCAUGCCAACUUCU; antisense AGAAGUUGGCAUGGUAGCCCUUGGG; chemistry not given here)
[3]
  maximum cell killing: 60%
[3]; GEM-TCA 3.9 nM
  sensitization of Panc-1 cells to GEM-TCA: significantly sensitize
[3]; GEM-TCA 62.5 nM
  sensitization of Panc-1 cells to GEM-TCA: sensitization effect was still significant

## Antagomir-132: modified RNA oligo targeting miR-132 (accguggcuuucgauuguuacu), packaged with HKP into nanoparticles (antisense ACCGUGGCUUUCGAUUGUUACU; chemically modified, pattern not given here, packaged with HKP into nanoparticles)
[5]
  miR-132 knockdown in the corneas: peak miR-132 knockdown

## I: KHHHKHHHKHHHKHHHKKKK-NH2 / II: KHHHKHHHKHHHKHHHK / III: KHHHKHHHKHHHKHHHK / IV: KHHHKHHHKHHHKHHHK (amide I:18-IV:C, I:19-III:C, I:20-II:C) [HKP]
[6]
  cytotoxicity: no cytotoxicity

## Nc1ccn([C@@H]2O[C@H](CO)[C@@H](O)C2(F)F)c(=O)n1 [Gemcitabine, 2′,2′-difluorodeoxycytidine]
[7]
  pKa: ~2.8
[8]
  interaction with cisplatin: synergistic
[9]; LX-1 and CALU-6 human lung xenografts
  activity in combination with cisplatin: showed activity
[9]; NCI-H460 or NCI-H520 xenografts
  activity in combination with cisplatin: minimal activity
[10]
  activity with cisplatin in vitro: dose-dependent synergistic activity
